{
  "source": "patent US20140004209A1",
  "about": "“AUTOPHAGY INDUCER AND INHIBITOR COMBINATION THERAPY FOR THE TREATMENT OF NEOPLASMS” (GENENTECH, INC., priority 2010, published 2014)",
  "key": {"PC3 xenograft tumors": {"tested_on": "PC3 xenograft tumors", "test": "PC3 xenograft tumor growth", "type": "in vivo, mice", "protocol": "Xenograft study: Six- to 8-week-old female athymic nude nu/nu mice were purchased from Charles River Laboratories and maintained in Genentech's conventional animal facility. Mice were injected in the right flank with 5˜7.5×10^6 cells resuspended in 200 μl Hank's Balanced Salt Solution (Invitrogen). When tumors reached a mean volume of 100˜300 mm^3 the mice with similarly-sized tumors were grouped into treatment cohorts. […] Amber-colored water bottles were used and were changed 3 times per week. […] Tumors were measured with calipers and mice weighed twice per week. Mice whose tumors reached 2000 mm^3 or lost more than 20% body weight were euthanized. Between 8˜10 mice were used for each treatment group. Statistical significance was analyzed using the JMP software (SAS Institute, Inc.).\nWe next examined the effect of Akt KDs on the ability of PC3 cells to maintain the growth of established tumors in vivo."}, "PC3 cells [1]": {"tested_on": "PC3 cells", "test": "Autophagy markers in PC3 cells (EM AVs, GFP-LC3, LC3-II/LC3-I, MDC, AO)", "type": "cell-based, human", "protocol": "(§1) Western blot analysis, immunofluorescence, 1HC and TUNEL assay: For Western blot analysis, total protein lysates were subjected to SDS-PAGE and transferred to nitrocellulose. […] Detection and quantification were performed using an Odyssey infrared scanner (LICOR) using the manufacturer's software. For immunofluorescence staining, cells were fixed in 3% paraformaldehyde and permeabilized with 0.01% digitonin in PBS, followed by a rabbit polyclonal anti-LC3 (Abgent) primary antibody detected with a cy3-conjugated anti-rabbit secondary antibody (Jackson Immunoresearch). For IHC, formalin-fixed, paraffin-embedded specimens were collected. 5-μm-thick paraffin-embedded sections were stained using an anti-Ki-67 (MIB-1, DakoCytomation) antibody with the Dako ARK kit (Dako Corporation). Tissues were counterstained with haematoxylin, dehydrated, and mounted. In all cases, antigen retrieval was performed with the Dako Target Retrieval Kit as per manufacturer's instructions. For TUNEL assay, formalin-fixed, paraffin-embedded sections were stained using an in situ cell death detection kit (POD; Roche Diagnostic) according to the manufacturer's instructions.\nUltrathin sections were stained with uranyl acetate and lead citrate. Numbers of AV were counted on systematically sampled cytoplasmic areas of 4.5 μm^2 (n≧64 per condition). The percent AV area was measured by means of a square mesh grid laid over ≧5 sets of systematically sampled micrographs with each set covering a cytoplasmic area ≧80 μm^2. The average percent of apoptotic nuclei in tumor tissues was calculated from the number of apoptotic nuclei in 3 to 4 sets of 100 systematically counted tumor cell nuclei.\nMultispectral imaging flow cytometry: Cells treated with various agents were stained with Acridine Orange and analyzed by the ImageStream system (Amnis Corporation, Seattle, Wash.) using the IDEAS image analysis program. The DNA AOGreen image and the vacuolar AO Red image were first compensated into separate channels, and then the percentage of apoptotic/anucleate cells (based on AO nuclear morphology and intensity) and vacuolated cells (AO Red+) were quantified. […] AORed Intensity is plotted on the second histogram with an arbitrary gate (R5) drawn to include events with the brightest AO Red intensity."}, "PC3 cells [2]": {"tested_on": "PC3 cells", "test": "Time-lapse microscopy of PC3 cells", "type": "cell-based, human", "conditions": "10 μM, 5% FBS, 3 d", "protocol": "Time-lapse video microscopy: Cells cultured in 24-well plates were imaged on an Olympus IX81 inverted microscope under environmental control (37° C. and 5% CO2) for 3 days. Imaging started 6 hours after the addition of the compounds and was taken at 1-hour intervals."}, "PC3 cells [3]": {"tested_on": "PC3 cells", "test": "Immunoblot of LAMP1, cathepsin D and p62 in PC3 cells", "type": "cell-based, human", "description": "as §1, with “nitrocellulose. Antibodies used were: anti-Akt1, anti-Akt2, anti-Akt3, anti-total-Akt, anti-p-Akt (Ser473), anti-p-Akt (Thr308), anti-p-S6 (Ser235/236), anti-PARP and anti-cleaved caspase-3 (Cell Signaling Technology); anti-p-PRAS40 (Invitrogen); anti-p27^Kip1 (Santa Cruz Biotechnology); anti-LC3 (Novus); anti-LAMP2 and anti-Cathepsin D (BD Biosciences); and anti-GAPDH (Advanced Immunochemical Inc.).” for “nitrocellulose.”\nBecause autophagy is a key function of the lysosomal compartment (Terman, A., B. Gustafsson, and U. T. Brunk, (2006), The lysosomal-mitochondrial axis theory of postmitotic aging and cell death. Chem Biol Interact. 163:29-37), we examined the lysosomal marker LAMPI and cathepsin D, the predominant lysosomal aspartic protease, by immunoblotting (FIG. 6, B and C). […] Cathepsin D is synthesized as a 43-kD preprocathepsin D that is cleaved cotranslationally and glycosylated to form a 46-kD procathepsin D, which is targeted to lysosomes yielding an intermediate that is further cleaved into a mature enzyme consisting of a 15-kD light chain and a 28-kD heavy chain."}, "PC3 cells [4]": {"tested_on": "PC3 cells", "test": "Mitochondrial membrane potential (MitoPT dye) in PC3 cells", "type": "cell-based, human", "conditions": "0.5% FBS", "protocol": "FIG. 21. […] Images at 48 h are shown. […] Merged images between red and green channels are also shown (MitoPT-M). Scale bar: 20 μm. (B) Percentage of cells showing red punctate stains and diffuse green stains from treatments described in (A). >86 cells from two random fields of fluorescent images of each treatment were counted. Error bars represent standard deviations between the two fields. […] Total fluorescence intensity from all cells was collected using the Isocyte (Blueshift Biotechnologies), a laser scanning imager. Green fluorescence intensity is collected with a 488 nm laser and a 510-540 nm band pass filter, and normalized to cell number determined by Hoechst staining using a 405 nm laser and a 430-480 nm band pass filter. Error bars, standard deviation between two independent experiments. (D) Representative images of the green ROS signals and bright field (BF) taken under a Nikon TE300 inverted microscope. […] Scale bar: 20 μm.\nCell Culture and Reagents: The PTEN^−/− and PTEN^+/+ MEFs were maintained as previously described (Sun, H., R. Lesche, D. M. Li, J. Liliental, H. Zhang, J. Gao, N. Gavrilova, B. Mueller, X. Liu, and H. Wu, (1999), PTEN modulates cell cycle progression and cell survival by regulating phosphatidylinositol 3,4,5,-trisphosphate and Akt/protein kinase B signaling pathway. Proc Natl Acad Sci USA. 96:6199-204). The PC3 and U87MG cells were maintained at 37° C. and 5% CO2 in DMEM/Ham's F-12 (1:1) containing 10% tetracycline-free fetal bovine serum. II-4 was from Calbiochem (Akt inhibitor VIII) (Barnett, S. F., D. Defeo-Jones, S. Fu, P. J. Hancock, K. M. Haskell, R. E. Jones, J. A. Kahana, A. M. Kral, K. Leander, L. L. Lee, J. Malinowski, E. M. McAvoy, D. D. Nahas, R. G. Robinson, and H. E. Huber, (2005), Identification and characterization of pleckstrin-homology-domain-dependent and isoenzyme-specific Akt inhibitors. Biochem J. 385:399-408). […] Image-iT LIVE Green Reactive Oxygen Species Detection Kit was purchased from Molecular Probes. MitoPT Mitochondria Permeability Transition Detection Kit was purchased from Immunochemistry Technologies, LLC."}, "PC3 cells [5]": {"tested_on": "PC3 cells", "test": "Mitochondrial superoxide (MitoSOX red) and cellular ROS in PC3 cells", "type": "cell-based, human", "experimental": "(B) PC3 cells treated as in A were stained with the Image-iT LIVE green ROS Detection kit and examined by fluorescence microscopy at 24 h. […] (C) Quantification of MitoSOX red and ROS green fluorescence intensities by flow cytometry at 24 h. Cells were treated as in A and B. Error bars represent SEM (n=3).\nBecause mitochondria are the primary intracellular source of superoxide (O2^−) generation, we analyzed O2^− production using MitoSOX red, an O2^− indicator that accumulates in the mitochondria as a function of membrane potential and fluoresces upon oxidation and subsequent binding to DNA."}, "[6]": {"test": "Autophagic vacuole accumulation by side scatter (SSC) in a flow cytometer", "type": "cell-based", "description": "Inhibitors include 3-phenyl-2-(4-((4-(5-(pyridin-2-yl)-1H-1,2,4-triazol-3-yl)piperidin-1-yl)methyl)phenyl)-1,6-naphthyridin-5(6H)-one (II-3), benzyl 2-(4-(3-ethylureido)phenyl)-4-(1,4-oxazepan-4-yl)-5H-pyrrolo[3,4-d]pyrimidine-6(7H)-carboxylate (III-1); 1-ethyl-3-(4-(4-morpholino-7-(pyrimidin-2-yl)-5,6,7,8-tetrahydropyrido[3,4-d]pyrimidin-2-yl)phenyl)urea (III-2), (R)-1-(44(2-(2-aminopyrimidin-5-yl)-7-methyl-4-morpholinothieno[3,2-d]pyrimidin-6-yl)methyl)piperazin-1-yl)-2-hydroxypropan-1-one (III-3), 4-(2-(1H-indazol-4-yl)-6-((4-(methylsulfonyl)piperazin-1-yl)methyl)thieno[3,2-d]pyrimidin-4-yl)morpholine (III-6), (S)—N-(4-(benzo[d][1,3]dioxol-5-yl)thiazol-2-yl)-N-(3-(2-formylpiperidin-1-yl)propyl)thiophene-2-carboxamide (IV-2) and Rapamycin.\nFIG. 14 depicts CQ (10 μM) increases the number and size of autophagic vacuoles when combined with the various mTOR, PI3K, and Akt inhibitors."}, "[7]": {"test": "Cell death in combination with CQ (FIG. 17)", "type": "cell-based"}, "[8]": {"tested_on": "537MEL melanoma cell line", "test": "Autophagy (Acridine Orange) and apoptosis (AnnV/PI) induction with CQ", "type": "cell-based", "description": "(§2) FIGS. 32A-B and 34A-B depict data showing correlation between Autophagy induction and apoptosis induction when each compound is combined with CQ at 24 hrs after the given compound treatment measured by Acridine Orange staining in 537MEL melanoma cell line and SKBR3Breast cancer cell line, respectively. Control was DMSO.\n(§3) FIGS. 33A-G and 35A-G show dose response curve of apoptosis induction in 537MEL melanoma and SKBR3Breast cancer cells, respectively, treated with the indicated compound alone or with 10 μM CQ, measured by Annezin V (AnnV) and Propidium iodide (PI) staining."}, "[9]": {"tested_on": "SKBR3Breast cancer cell line", "test": "Autophagy (Acridine Orange) and apoptosis (AnnV/PI) induction with CQ", "type": "cell-based", "description": "as §2, §3"}, "[10]": {"conditions": "24 hrs, Acridine Orange staining"}},
  "note": "“Also recorded” adds a separate entry of the source.",
  "data": [
    {"smiles": "CCN(CC)CCCC(C)Nc1ccnc2cc(Cl)ccc12", "note": "(stereo not shown) [CQ, chloroquine]", "values": [
      {"measurement": "tumors with stasis maintained throughout the study", "setting": "PC3 xenograft tumors; PC3-shAkt123 xenograft, both Dox and CQ", "value": 20, "unit": "%"},
      {"measurement": "tumors with complete regression", "setting": "PC3 xenograft tumors; PC3-shAkt123 xenograft, both Dox and CQ, intraperitoneal", "value": 40, "unit": "%"},
      {"measurement": "incidence of complete tumor remission, CQ combined with Akt knockdown", "setting": "PC3 xenograft tumors; mouse, in vivo", "value": "significantly increased the incidence of complete tumor remission; also recorded: increased the incidence of complete tumor remissions in vivo"},
      {"measurement": "AVO accumulation, agent alone (multispectral imaging flow cytometry)", "setting": "PC3 cells [1]", "value": "induced AVO accumulation without significant loss of viability"},
      {"measurement": "induction of AV accumulation / autophagy, agent alone", "setting": "PC3 cells [1]", "value": "induced accumulation of AVs"},
      {"measurement": "cell division and morphology, agent alone", "setting": "PC3 cells [2]", "value": "mild decrease in cell division and a gradual accumulation of dark particles in the perinuclear region"},
      {"measurement": "p62 level", "setting": "PC3 cells [3]", "value": "increased the level of p62 both with and without Akti; also recorded: blocked p62 degradation both with and without II-4 treatment"},
      {"measurement": "mitochondrial membrane potential, agent alone", "setting": "PC3 cells [4]", "value": "did not have a significant effect"},
      {"measurement": "MitoSOX fluorescence, agent alone", "setting": "PC3 cells [5]", "value": "mild increase in MitoSOX signal"},
      {"measurement": "cellular ROS signal, agent alone", "setting": "PC3 cells [5]", "value": "little effect on ROS levels"}
    ]},
    {"smiles": "CS(=O)(=O)N1CCN(Cc2cc3nc(-c4cccc5[nH]ncc45)nc(N4CCOCC4)c3s2)CC1", "note": "[III-6, 4-(2-(1H-indazol-4-yl)-6-((4-(methylsulfonyl)piperazin-1-yl)methyl)thieno[3,2-d]pyrimidin-4-yl)morpholine]", "values": [
      {"measurement": "autophagic vacuole accumulation (SSC), inhibitor alone", "setting": "[6]", "value": "induce increased autophagic vacuole accumulation"},
      {"measurement": "interaction with CQ on cell death", "setting": "[7]", "value": "synergize with CQ to accelerate cell death"}
    ]},
    {"smiles": "O=C(NOC[C@H](O)CO)c1ccc(F)c(F)c1Nc1ccc(I)cc1F", "note": "[VII, (R)—N-(2,3-dihydroxypropoxy)-3,4-difluoro-2-(2-fluoro-4-iodophenylamino)benzamide]", "values": [
      {"measurement": "apoptosis induction when combined with CQ", "setting": "[8]; 10 μM CQ, AnnV and PI staining", "value": "no synergistic apoptosis induction is shown when combined with CQ; also recorded: CQ does not induce apoptosis in cancer cells"},
      {"measurement": "autophagy induction", "setting": "[8]; [10]", "value": "does not induce an increase in autophagy"},
      {"measurement": "apoptosis induction when combined with CQ", "setting": "[9]; 10 μM CQ, AnnV and PI staining", "value": "no synergistic apoptosis induction is shown when combined with CQ; also recorded: CQ does not induce apoptosis in cancer cells"},
      {"measurement": "autophagy induction", "setting": "[9]; [10]", "value": "does not induce an increase in autophagy"}
    ]}
  ]
}
